Experimental data from patent US20240279635A1, “BIOFILM ACTIVITY ADJUSTING METHOD” (NATIONAL INSTITUTE FOR MATERIALS SCIENCE, priority 2021, published 2024).

Test system: Klebsiella pneumoniae
Test: Electric current generation by Klebsiella pneumoniae with electron mediators in a three-electrode electrochemical cell (time-current curve, FIG. 4)
Format: cell-based
Conditions: 100 μM electron mediator, 10 mM glucose, working electrode +0.2 V (vs. Ag/AgCl), 37° C., anaerobic condition, 15 hours, carbon electrodes
Method: The experiment was performed using a three-electrode electrochemical cell having carbon electrodes as the working electrode and counter electrode, and a silver/silver chloride electrode as the reference electrode.
First, as an electron source, a liquid culture medium (defined medium) containing 10 mM of glucose and 100 μM of electron mediator (see below) was added to the cell described above, to which Klebsiella pneumoniae (optical density (OD): 0.1) was inoculated, then an electric potential of the working electrode was set to +0.2 V (vs. Ag/AgCl) at 37° C., and the culture medium was incubated under anaerobic condition for 15 hours.
• HNQ: 2-hydroxy-1,4-naphthoquinone • 1-Phenazine: 1-hydroxyphenazine • AQDS: anthraquinone-1,5-disulfonate • AQS: anthraquinone-1-sulfonate • FMN: flavin mono nucleotide • RF: ribobflavin • W/O mediator: no electron mediator
FIG. 4 is a time-current curve.

In the case of `O=C1C=C(O)C(=O)c2ccccc21` [HNQ, 2-hydroxy-1,4-naphthoquinone], the “generated electric current (time-current curve)” value is reported as “a large electric current could be generated”.
